Experimental data from publication PMC11163866 (Journal of medicinal chemistry, 2024).

Assays:
[1] = In vitro metabolic stability in mouse liver microsomes; type: in vitro ADME; conditions: 1 μM; 0.5 mg/mL microsomes; up to 60 min
[2] = In vitro metabolic stability in human liver microsomes; type: in vitro ADME; conditions: 1 μM; 0.5 mg/mL microsomes; up to 60 min

Row | Structure (SMILES) | metabolic stability (t1/2, min) vs MLM [1] [min] | metabolic stability (t1/2, min) vs HLM [2] [min]
1 | CCCCCCN/C=C1\N=C(c2ccc[nH]2)C=C1OC.Cl [compound 42] | 10.2 | 17.1
2 | COC1=CC(c2ccc[nH]2)=N/C1=C\NCC1CCCCCC1.Cl [compound 46, (Z)-1-Cycloheptyl-N-((4'-methoxy-1H,5'H-[2,2'-bipyrrol]-5'-ylidene)methyl)-methanamine Hydrochloride] | 12.3 | 18.6
3 | COC1=CC(c2ccc[nH]2)=N/C1=C\N[C@H]1CC[C@H](C)CC1.Cl [compound 47, (1r,4r)-N-((Z)-(4'-Methoxy-1H,5'H-[2,2'-bipyrrol]-5'-ylidene)methyl)-4-methylcyclohexan-1-amine Hydrochloride] | 11.4 | 17.3
4 | COC1=CC(c2ccc[nH]2)=N/C1=C\N[C@H]1CC[C@H](C(F)(F)F)CC1.Cl [compound 48, (1r,4r)-N-((Z)-(4'-Methoxy-1H,5'H-[2,2'-bipyrrol]-5'-ylidene)methyl)-4-(trifluoromethyl)cyclohexan-1-amine Hydrochloride] | 15.4 | 13.0
5 | CC1=C(C)/C(=C/NC2CCCCCC2)N=C1c1ccc[nH]1.Cl [compound 90] | 11.2 | 45.1
6 | C(/NC1CCCCCC1)=C1/N=C(c2ccc[nH]2)C2=C1CCCC2.Cl [compound 102] | 9.71 | > 60.0
7 | C(/NCC1CCCCCC1)=C1/N=C(c2ccc[nH]2)C2=C1CCCC2.Cl [compound 104, (Z)-1-(3-(1H-Pyrrol-2-yl)-4,5,6,7-tetrahydro-1H-isoindol-1-ylidene)-N-(cycloheptylmethyl)methanamine Hydrochloride] | > 60.0 | > 60.0
8 | Cc1ccc(N/C=C2\N=C(c3ccc[nH]3)C3=C2CCCC3)cc1.Cl [compound 105, (Z)-N-((3-(1H-Pyrrol-2-yl)-4,5,6,7-tetrahydro-1H-isoindol-1-ylidene)methyl)-4-methylaniline Hydrochloride] | 31.2 | 42.1
9 | COc1ccc(Oc2ccc(N/C=C3\N=C(c4ccc[nH]4)C4=C3CCCC4)cc2)cc1.Cl [compound 108, (Z)-N-((3-(1H-Pyrrol-2-yl)-4,5,6,7-tetrahydro-1H-isoindol-1-ylidene)methyl)-4-(4-methoxyphenoxy)aniline Hydrochloride] | > 60.0 | > 60.0
10 | Cc1ccc(Oc2ccc(N/C=C3\N=C(c4ccc[nH]4)C4=C3CCCC4)cc2)cc1.Cl [compound 109, (Z)-N-((3-(1H-Pyrrol-2-yl)-4,5,6,7-tetrahydro-1H-isoindol-1-ylidene)methyl)-4-(p-tolyloxy)aniline Hydrochloride] | > 60.0 | > 60.0
11 | CC1=C(C)/C(=C/NC2CCCCCC2)N=C1c1ccc(CC(C)C)[nH]1.Cl [compound 111, (Z)-N-((5-Isobutyl-3',4'-dimethyl-1H,5'H-[2,2'-bipyrrol]-5'-ylidene)methyl)cycloheptanamine Hydrochloride] | > 60.0 | > 60.0
12 | CCc1ccc(C2=N/C(=C\NC3CCCCCCC3)C(C)=C2C)[nH]1.Cl [compound 112, (Z)-N-((5-Ethyl-3',4'-dimethyl-1H,5'H-[2,2'-bipyrrol]-5'-ylidene)methyl)cyclooctanamine Hydrochloride] | > 60.0 | > 60.0
13 | CCc1c[nH]c(C2=N/C(=C\NC3CCCCCC3)C(C)=C2C)c1.Cl [compound 113, (Z)-N-((4-Ethyl-3',4'-dimethyl-1H,5'H-[2,2'-bipyrrol]-5'-ylidene)methyl)cycloheptanamine Hydrochloride] |  | > 60.0
14 | CCc1ccc(C2=N/C(=C\NC3CCCCCC3)C(OC)=C2)[nH]1.Cl [compound 117, (Z)-N-((5-Ethyl-4'-methoxy-1H,5'H-[2,2'-bipyrrol]-5'-ylidene)methyl)cycloheptanamine Hydrochloride] | 7.98 | > 60.0
15 | COC1=CC(c2ccc(-c3ccc(OC)cc3)[nH]2)=N/C1=C\NC1CCCCCC1.Cl [compound 118, (Z)-N-((4'-Methoxy-5-(4-methoxyphenyl)-1H,5'H-[2,2'-bipyrrol]-5'-ylidene)methyl)cycloheptanamine Hydrochloride] | > 60.0 | > 60.0
16 | COC1=CC(c2ccc(Cc3ccc(OC)cc3)[nH]2)=N/C1=C\NC1CCCC1.Cl [compound 119, (Z)-N-((4'-Methoxy-5-(4-methoxybenzyl)-1H,5'H-[2,2'-bipyrrol]-5'-ylidene)methyl)cyclopentanamine Hydrochloride] | 10.4 | 11.7
17 | COC1=CC(c2ccc(Cc3ccc(OC)cc3)[nH]2)=N/C1=C\NC1CCCCC1.Cl [compound 120, (Z)-N-((4'-Methoxy-5-(4-methoxybenzyl)-1H,5'H-[2,2'-bipyrrol]-5'-ylidene)methyl)cyclohexanamine Hydrochloride] | 13.8 | 19.7

Further lines, results first:

Row | metabolic stability (t1/2, min) vs MLM [1] [min] | metabolic stability (t1/2, min) vs HLM [2] [min] | Structure (SMILES)
18 | 8.20 | 52.1 | COC1=CC(c2ccc[nH]2)=N/C1=C\NC1CCCCCC1.Cl [compound 45]
19 | 28.9 |  | COC1=CC(c2ccc[nH]2)=N/C1=C\Nc1ccc(C)cc1.Cl [compound 52, (Z)-N-((4'-Methoxy-1H,5'H-[2,2'-bipyrrol]-5'-ylidene)methyl)-4-methylaniline Hydrochloride]
20 | 45.1 | > 60.0 | COC1=CC(c2ccc[nH]2)=N/C1=C\Nc1ccc(OC(F)(F)F)cc1.Cl [compound 54, (Z)-N-((4'-Methoxy-1H,5'H-[2,2'-bipyrrol]-5'-ylidene)methyl)-4-(trifluoromethoxy)aniline Hydrochloride]
21 | 42.0 | > 60.0 | COC1=CC(c2ccc[nH]2)=N/C1=C\Nc1cccc(Cl)c1.Cl [compound 57, (Z)-3-Chloro-N-((4'-methoxy-1H,5'H-[2,2'-bipyrrol]-5'-ylidene)methyl)aniline Hydrochloride]
22 | 15.8 | > 60.0 | COC1=CC(c2ccc[nH]2)=N/C1=C\Nc1cccc(OC(F)(F)F)c1.Cl [compound 58, (Z)-N-((4'-Methoxy-1H,5'H-[2,2'-bipyrrol]-5'-ylidene)methyl)-3-(trifluoromethoxy)aniline Hydrochloride]
23 | 46.7 | 56.2 | COC1=CC(c2ccc[nH]2)=N/C1=C\Nc1ccc(Cl)c(Cl)c1.Cl [compound 60, (Z)-3,4-Dichloro-N-((4'-methoxy-1H,5'H-[2,2'-bipyrrol]-5'-ylidene)methyl)aniline Hydrochloride]
24 | > 60.0 | > 60.0 | COC1=CC(c2ccc[nH]2)=N/C1=C\Nc1ccc(Cl)c(OC)c1.Cl [compound 61, (Z)-4-Chloro-3-methoxy-N-((4'-methoxy-1H,5'H-[2,2'-bipyrrol]-5'-ylidene)methyl)aniline Hydrochloride]
25 | 19.1 | > 60.0 | COC1=CC(c2ccc[nH]2)=N/C1=C\Nc1ccc(F)c(OC)c1.Cl [compound 62, (Z)-4-Fluoro-3-methoxy-N-((4'-methoxy-1H,5'H-[2,2'-bipyrrol]-5'-ylidene)methyl)aniline Hydrochloride]
26 | 15.8 | > 60.0 | COC1=CC(c2ccc[nH]2)=N/C1=C\Nc1ccc2c(c1)OCCO2.Cl [compound 63, (Z)-N-((4'-Methoxy-1H,5'H-[2,2'-bipyrrol]-5'-ylidene)methyl)-2,3-dihydrobenzo[b][1,4]dioxin-6-amine Hydrochloride]
27 | > 60.0 | > 60.0 | Cl.FC(F)(F)Oc1ccc(OC2=CC(c3ccc[nH]3)=N/C2=C\NC23CC4CC(CC(C4)C2)C3)cc1 [compound 70, (3s,5s,7s)-N-((Z)-(4'-(4-(Trifluoromethoxy)phenoxy)-1H,5'H-[2,2'-bipyrrol]-5'-ylidene)methyl)adamantan-1-amine Hydrochloride]
28 | > 60.0 | > 60.0 | Cl.Fc1cc(F)cc(OC2=CC(c3ccc[nH]3)=N/C2=C\NC23CC4CC(CC(C4)C2)C3)c1 [compound 74, (3s,5s,7s)-N-((Z)-(4'-(3,5-Difluorophenoxy)-1H,5'H-[2,2'-bipyrrol]-5'-ylidene)methyl)adamantan-1-amine Hydrochloride]
29 | > 60 | > 60 | Cl.Clc1ccc(OC2=CC(c3ccc[nH]3)=N/C2=C\NC23CC4CC(CC(C4)C2)C3)cc1 [compound 77, (3s,5s,7s)-N-((Z)-(4'-(4-Chlorophenoxy)-1H,5'H-[2,2'-bipyrrol]-5'-ylidene)methyl)adamantan-1-amine Hydrochloride]
30 | > 60.0 | > 60.0 | Cl.FC(F)(F)Oc1ccc(C2=CC(c3ccc[nH]3)=N/C2=C\NC23CC4CC(CC(C4)C2)C3)cc1 [compound 80, (3s,5s,7s)-N-((Z)-(4'-(4-(Trifluoromethoxy)phenyl)-1H,5'H-[2,2'-bipyrrol]-5'-ylidene)methyl)adamantan-1-amine Hydrochloride]
31 | 17.6 | > 60.0 | CC1=C/C(=C\NC23CC4CC(CC(C4)C2)C3)N=C1c1ccc[nH]1.Cl [compound 88]
32 | 29.0 | > 60.0 | CCc1c(C)[nH]c(C2=N/C(=C\NC34CC5CC(CC(C5)C3)C4)C(C)=C2C)c1C.Cl [compound 116]
